Tests used:
Experiment in all cases: relative viability (nuclei count vs DMSO), 5 days (fraction); higher = more cells survive
[1] = system: COR-L23
Method in brief: (§1)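 For relative viability, nuclei counts in treated wells were divided by those in vehicle wells. Lung cancer cell lines had been pin-tool dosed in 1536-well plates the day after seeding and cultured for 5 days, then fixed and stained in one step (final 0.05% Triton X-100, 1% formaldehyde, 1 ug/ml Hoechst) and imaged at 4×. Doses were one drug alone or a fixed anchor-drug dose plus five library-drug doses (not always all listed) in √10 steps, and values are duplicate-plate medians.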

[2] = system: NCI-H2405
Method in brief: as §1

[3] = system: NCI-H322M
Method in brief: as §1

[4] = system: NCI-H1734
Method in brief: as §1

[5] = system: H3255
Method in brief: as §1

[6] = system: NCI-H647
Method in brief: as §1

[7] = system: NCI-H23
Method in brief: as §1

[8] = system: LK-2
Method in brief: as §1

[9] = system: PC-14
Method in brief: as §1

[10] = system: NCI-H2087
Method in brief: as §1

[11] = system: LXF-289
Method in brief: as §1

[12] = system: NCI-H2085
Method in brief: as §1

[13] = system: UMC-11
Method in brief: as §1

[14] = system: NCI-H2347
Method in brief: as §1

[15] = system: NCI-H1651
Method in brief: as §1

[16] = system: EKVX
Method in brief: as §1

[17] = system: RERF-LC-KJ
Method in brief: as §1

[18] = system: NCI-H3122
Method in brief: as §1

[19] = system: A-427
Method in brief: as §1

[20] = system: NCI-H1993
Method in brief: as §1

[21] = system: SK-LU-1
Method in brief: as §1

[22] = system: NCI-H1437
Method in brief: as §1

[23] = system: NCI-H460
Method in brief: as §1

Nc1cccc2c1CN(C1CCC(=O)NC1=O)C2=O (stereo unspecified) [Lenalidomide] + CC1(C)CCC(c2ccc(Cl)cc2)=C(CN2CCN(c3ccc(C(=O)NS(=O)(=O)c4ccc(N[C@H](CCN5CCOCC5)CSc5ccccc5)c(S(=O)(=O)C(F)(F)F)c4)cc3)CC2)C1 [Navitoclax] (partner 0.5 µM) was tested, and the relative viability ([1]; first compound 0.253 µM) was 0.986, the relative viability ([1]; first compound 0.8 µM) was 1.01 and the relative viability ([1]; first compound 2.53 µM) was 0.997. The relative viability ([1]; first compound 8 µM) was 1.06, the relative viability ([2]; first compound 0.253 µM) was 0.83 and the relative viability ([2]; first compound 0.8 µM) was 0.921. The relative viability ([2]; first compound 2.53 µM) was 0.793, the relative viability ([2]; first compound 8 µM) was 0.802 and the relative viability ([3]; first compound 0.253 µM) was 1. It also gave a relative viability ([3]; first compound 0.8 µM) of 1.42, a relative viability ([3]; first compound 2.53 µM) of 1.17 and a relative viability ([3]; first compound 8 µM) of 0.965. The relative viability ([4]; first compound 0.253 µM) was 0.802, the relative viability ([4]; first compound 0.8 µM) was 0.831 and the relative viability ([4]; first compound 2.53 µM) was 1.01. The relative viability ([4]; first compound 8 µM) was 0.796, the relative viability ([5]; first compound 0.253 µM) was 0.519 and the relative viability ([5]; first compound 0.8 µM) was 0.395. For the same compound, the relative viability ([5]; first compound 2.53 µM) was 0.589, the relative viability ([5]; first compound 8 µM) was 0.523 and the relative viability ([6]; first compound 0.253 µM) was 1.08. For the same compound, the relative viability ([6]; first compound 0.8 µM) was 1.11, the relative viability ([6]; first compound 2.53 µM) was 1.4 and the relative viability ([6]; first compound 8 µM) was 1.04. The relative viability ([7]; first compound 0.253 µM) was 0.876, the relative viability ([7]; first compound 0.8 µM) was 0.917 and the relative viability ([7]; first compound 2.53 µM) was 0.999. The relative viability ([7]; first compound 8 µM) was 0.649, the relative viability ([8]; first compound 0.253 µM) was 0.817 and the relative viability ([8]; first compound 0.8 µM) was 0.85. For the same compound, the relative viability ([8]; first compound 2.53 µM) was 0.959, the relative viability ([8]; first compound 8 µM) was 0.709 and the relative viability ([9]; first compound 0.253 µM) was 0.907. The relative viability ([9]; first compound 0.8 µM) was 1.02, the relative viability ([9]; first compound 2.53 µM) was 1.08 and the relative viability ([9]; first compound 8 µM) was 1.05. The relative viability ([10]; first compound 0.253 µM) was 1.03, the relative viability ([10]; first compound 0.8 µM) was 0.971 and the relative viability ([10]; first compound 2.53 µM) was 0.962. It also gave a relative viability ([10]; first compound 8 µM) of 1.06, a relative viability ([11]; first compound 0.253 µM) of 0.963 and a relative viability ([11]; first compound 0.8 µM) of 0.971. The relative viability ([11]; first compound 2.53 µM) was 1.01, the relative viability ([11]; first compound 8 µM) was 1.06 and the relative viability ([12]; first compound 0.253 µM) was 1.25. For the same compound, the relative viability ([12]; first compound 0.8 µM) was 1.16, the relative viability ([12]; first compound 2.53 µM) was 1.26 and the relative viability ([12]; first compound 8 µM) was 1.2. For the same compound, the relative viability ([13]; first compound 0.253 µM) was 0.317, the relative viability ([13]; first compound 0.8 µM) was 0.28 and the relative viability ([13]; first compound 2.53 µM) was 0.346. It also gave a relative viability ([13]; first compound 8 µM) of 0.277, a relative viability ([14]; first compound 0.253 µM) of 0.788 and a relative viability ([14]; first compound 0.8 µM) of 0.747. It also gave a relative viability ([14]; first compound 2.53 µM) of 0.842, a relative viability ([14]; first compound 8 µM) of 0.721 and a relative viability ([15]; first compound 0.253 µM) of 1.04. For the same compound, the relative viability ([15]; first compound 0.8 µM) was 0.931, the relative viability ([15]; first compound 2.53 µM) was 1.25 and the relative viability ([15]; first compound 8 µM) was 0.898. The relative viability ([16]; first compound 0.253 µM) was 0.882, the relative viability ([16]; first compound 0.8 µM) was 0.855 and the relative viability ([16]; first compound 2.53 µM) was 1.13. The relative viability ([16]; first compound 8 µM) was 0.843, the relative viability ([17]; first compound 0.253 µM) was 0.959 and the relative viability ([17]; first compound 0.8 µM) was 0.736. For the same compound, the relative viability ([17]; first compound 2.53 µM) was 1.02, the relative viability ([17]; first compound 8 µM) was 1.09 and the relative viability ([18]; first compound 0.253 µM) was 1. It also gave a relative viability ([18]; first compound 0.8 µM) of 1.08, a relative viability ([18]; first compound 2.53 µM) of 0.997 and a relative viability ([18]; first compound 8 µM) of 1.07. The relative viability ([19]; first compound 0.253 µM) was 0.99, the relative viability ([19]; first compound 2.53 µM) was 0.911 and the relative viability ([19]; first compound 8 µM) was 0.832. For the same compound, the relative viability ([20]; first compound 0.253 µM) was 0.906, the relative viability ([20]; first compound 0.8 µM) was 0.855 and the relative viability ([20]; first compound 2.53 µM) was 0.88. The relative viability ([20]; first compound 8 µM) was 0.797, the relative viability ([21]; first compound 0.253 µM) was 0.729 and the relative viability ([21]; first compound 0.8 µM) was 0.946. It also gave a relative viability ([21]; first compound 2.53 µM) of 1.45, a relative viability ([21]; first compound 8 µM) of 0.924 and a relative viability ([22]; first compound 0.253 µM) of 1.08. The relative viability ([22]; first compound 0.8 µM) was 1.09, the relative viability ([22]; first compound 2.53 µM) was 1.14 and the relative viability ([22]; first compound 8 µM) was 1.14. For the same compound, the relative viability ([23]; first compound 0.253 µM) was 0.811, the relative viability ([23]; first compound 0.8 µM) was 1.28 and the relative viability ([23]; first compound 2.53 µM) was 1.15. It also gave a relative viability ([23]; first compound 8 µM) of 1.13.

— the supplement of paper PMC10307832
